# Data: patent publication US10278964B2, “Medical treatments based on anamorelin” (HELSINN HEALTHCARE SA, priority 2014, dated 2019)
# Values joined by “and” are separate entries in the source; they are usually repeats but may differ in a detail not shown here. Equal values may be shown once. “Also recorded” adds a separate entry of the source.
# Assays:
# [1] = tested on: patients with cancer anorexia-cachexia syndrome; settings: cited from earlier work
# healthy subjects [2] = settings: 50 or 75 mg doses; after 6 days; cited from earlier work
# healthy subjects [3] = settings: cited from earlier work
# [4] = tested on: patients with NSCLC-Cachexia; experiment: Romana 2: randomized, double-blind, placebo-controlled phase 3 study of anamorelin HCl; type: in vivo, human
# Excerpt: Example 2 Anamorelin HCL in the Treatment of Non-Small Cell Lung Cancer—Cachexia (NSCLC-C): A Randomized, Double-Blind, Placebo-Controlled, Multicenter, Phase III Study to Evaluate the Safety and Efficacy of Anamorelin Hcl in Patients with NSCLC-C(Romana 2)
# (§1) Key features of the Romana 2 study are as follows: • DESIGN: randomized, double-blind, placebo-controlled, multicenter, phase 3 study to evaluate the safety and efficacy of anamorelin HCl (anamorelin) in patients with NSCLC-Cachexia (59 sites; 15 countries) • PRIMARY ENDPOINT: Lean body mass (LBM) by DXA • SECONDARY ENDPOINTS: • Key: pooled overall survival, Anorexia/Cachexia sub-domain, Fatigue sub-domain, Simplified Evaluation of Appetite (SEA), and Simplified Evaluation of Fatigue (SEF) • Other: Body weight, study specific overall survival, FAACT/FACIT-F trial outcome index (TOI) and total scores, additional LBM analyses • EXPLORATORY ENDPOINTS: Hunger Assessment Scale (HAS), Karnofsky (KPS), responder analyses; Population pharmacokinetics (PK) in 90 patients • STUDY POPULATION: advanced NSCLC (unresectable Stage III or IV) and cachexia (≥5% body weight within 6 months or screening BMI<20 kg/m^2) • SAMPLE SIZE: 495 patients; randomization ratio 2:1 (anamorelin:placebo) • DOSING: placebo or 100 mg anamorelin for 12 weeks • SAFETY ASSESSMENTS: Adverse events (AEs), labs, vitals, ECGs
# [5] = tested on: patients with NSCLC-Cachexia; experiment: Romana 1: randomized, double-blind, placebo-controlled phase 3 study of anamorelin HCl; type: in vivo, human; settings: for Fatigue Domain of FACIT-F, change from baseline, subgroup / Simplified Evaluation of Fatigue (SEF), change from baseline, subgroup: MITT
# Excerpt: Example 1 Anamorelin HCl in the Treatment of Non-Small Cell Lung Cancer—Cachexia (NSCLC-C): A Randomized, Double-Blind, Placebo-Controlled, Multicenter, Phase III Study to Evaluate the Safety and Efficacy of Anamorelin HCl in Patients with NSCLC-C(Romana 1)
# as §1, with “Romana 1” for “Romana 2”, “SIZE: 484” for “SIZE: 495”
# [6] = tested on: patients with advanced non-small cell lung cancer (NSCLC); settings: cited from earlier work
# [7] = tested on: patients with various cancers with cachexia; settings: 50 mg once per day, cited from earlier work
# [8] = tested on: patients with various cancers and cachexia; settings: 50 mg once per day; cited from earlier work
# [9] = tested on: patients with advanced cancer and cachexia; settings: after 4 weeks; cited from earlier work
# [10] = ITT population, 100 mg anamorelin for 12 weeks, LBM by DXA
# [11] = ITT population, over 12 weeks, 100 mg
# [12] = MITT population, over 12 weeks, 100 mg
# [13] = anamorelin treatment for 12 weeks
# [14] = MITT population, 12-week study period, anamorelin vs. placebo
smiles,measurement,setting,value
CC(=O)O[C@]1(C(C)=O)CC[C@H]2[C@@H]3C=C(C)C4=CC(=O)CC[C@]4(C)[C@H]3CC[C@@]21C [megestrol acetate],Quality of life in cancer cachexia patients,"[1]; 13 of 14 studies no significant difference vs placebo, dronabinol, eicosapentaenoic acid or glucocorticosteroids",has not been shown to improve
same,Body weight and water,"[1]; human, in vivo",only been shown to increase body weight and water
same,Fat mass or lean body mass,"[1]; human, in vivo",does not improve
CN(C)N(C)C(=O)[C@@]1(Cc2ccccc2)CCCN(C(=O)[C@@H](Cc2c[nH]c3ccccc23)NC(=O)C(C)(C)N)C1 [anamorelin],Body weight gain versus placebo,healthy subjects [2],significant dose-related weight gain
same,Body weight,healthy subjects [3]; 50 mg dose (single or split dose) and 75 mg dose,significant increases
same,GH levels,"healthy subjects [3]; all doses (25, 50, 75 mg)",significantly increased
same,IGF-1 levels,"healthy subjects [3]; all doses (25, 50, 75 mg)",significantly increased
same,"Lean Body Mass, median change from baseline over 12 weeks",[4]; [10],0.75
same,"Lean Body Mass, median treatment difference (anamorelin vs. placebo)",[4]; [11],1.71
same,FAACT TOI and total score (cachexia concerns),[4]; MITT population,trending benefit
same,FACIT-F TOI and total score,[4]; MITT population,No benefit
same,SEF score vs. placebo,"[4]; MITT population, 12-week study period",overall small trend of improvement; also recorded: not statistically different from placebo
same,"Anorexia/Cachexia Domain, Treatment Difference (anamorelin vs. placebo), LS Mean (SE)",[4]; [12],2.14 (0.676)
same,"Body Weight, Treatment Difference (anamorelin vs. placebo), LS Mean (SE)",[4]; [12],1.53 (0.327) kg
same,"Body Weight, overall change from baseline, LS Mean (SE)",[4]; [12],0.95 (0.386) kg
same,"FAACT Anorexia/Cachexia Domain, change from baseline, LS Mean (SE)",[4]; [12],3.48 (0.944)
same,"SEA Score, Treatment Difference (anamorelin vs. placebo), LS Mean (SE)",[4]; [12],0.66 (0.283)
same,"SEA Score, change from baseline, LS Mean (SE)",[4]; [12],1.08 (0.400)
same,"FACIT-F fatigue score, subgroup","[4]; MITT, BMI less than or equal to 18.5",maintained a steady score after Week 3
same,"FACIT-F fatigue score, subgroup","[4]; MITT, ECOG of 2",general trend of improvement
same,"SEF score, subgroups","[4]; MITT, concomitant opioid use and BMI≤18.5",Specific improvements
same,"FACIT-F fatigue score, subgroup","[4]; MITT, concomitantly taking opioids, after Week 3",did not experience as severe of a decline in score as those in the placebo group
same,"FACIT-F fatigue score, subgroup","[4]; MITT, patients under the age of 65, after Week 3",did not experience as severe of a decline in score as those in the placebo group
same,Tolerability,[4]; [13],well tolerated
same,Concerns related to weight and body image (FAACT),[4]; in vivo,an improvement
same,Percentage of change in LBM,[4]; in vivo,consistent increases
same,"Symptoms of early satiety and appetite (individual FAACT questions), change from baseline over time",[4]; in vivo,showed an improvement
same,"Lean Body Mass, median change from baseline over 12 weeks",[5]; [10],1.10 kg
same,"Lean Body Mass, median treatment difference (anamorelin vs. placebo)",[5]; [11],1.54 kg
same,"FAACT TOI, overall treatment difference",[5]; [14],2.86±1.161
same,"FAACT Total, overall treatment difference",[5]; [14],2.67±1.459
same,"FACIT TOI, overall treatment difference",[5]; [14],1.90±1.358
same,"FACIT Total, overall treatment difference",[5]; [14],2.07±1.651
same,"Anorexia/Cachexia Domain, Treatment Difference (anamorelin vs. placebo), LS Mean (SE)",[5]; [12],2.21 (0.617)
same,"Body Weight, Treatment Difference (anamorelin vs. placebo), LS Mean (SE)",[5]; [12],2.07 (0.325) kg
same,"Body Weight, overall change from baseline, LS Mean (SE)",[5]; [12],2.20±0.3 kg and 2.20 (0.326) kg
same,"FACIT-F Fatigue Domain, change from baseline, LS Mean (SE)",[5]; [12],0.26 (0.886)
same,"SEA Score, Treatment Difference (anamorelin vs. placebo), LS Mean (SE)",[5]; [12],0.65 (0.262)
same,"SEA Score, change from baseline, LS Mean (SE)",[5]; [12],1.57 (0.317)
same,"SEF Score, Treatment Difference (anamorelin vs. placebo), LS Mean (SE)",[5]; [12],0.33 (0.265)
same,"SEF Score, change from baseline, LS Mean (SE)",[5]; [12],0.11 (0.309)
same,"Fatigue Domain of FACIT-F, change from baseline, subgroup","[5]; BMI>18.5, Week 3 to 12",smaller improvement trend
same,"Simplified Evaluation of Fatigue (SEF), change from baseline, subgroup",[5]; BMI≤18.5 (statistically significant at Week 3 and 6),improvement trend over 12 Weeks
same,"Fatigue Domain of FACIT-F, change from baseline, subgroup","[5]; ECOG 0-1, Week 3, 6, 9 to 12",gap increase between placebo and anamorelin
same,"Fatigue Domain of FACIT-F, change from baseline, subgroup","[5]; aged 65 years and younger, concomitant opioid use, ECOG 2 (Weeks 9 and 12), BMI≤18.5",statistically significant improvement
same,"Simplified Evaluation of Fatigue (SEF), change from baseline, subgroup",[5]; concomitant opioid use,small trend of improvement
same,"Fatigue Domain of FACIT-F, change from baseline, subgroup","[5]; males, Week 3 to 6 (statistically significant at Week 9)",general improvement trend
same,"Fatigue Domain of FACIT-F, change from baseline, subgroup",[5]; no-concomitant opioid use,smaller overall improvement trend
same,Tolerability,[5]; [13],well tolerated
same,Percentage change from baseline in LBM,[5]; throughout the 12-week study,consistent improvement
same,"FACIT-F score (fatigue), change from baseline","[5]; week 9, 100 mg",0.33±0.9
same,"FACIT-F score (fatigue), change from baseline","[5]; week 12, 100 mg",0.48±1.0
same,Average weight gain from baseline to week 12,[6]; 100 mg once daily,statistically significant average weight gain
same,IGFBP-3 as compared to placebo,[6]; 50 or 100 mg once daily,statistically significant increases
same,MD Anderson Symptom Inventory (MDASI) scores,[6]; 50 or 100 mg once daily,the improvement was not significant
same,ASAS scores,[7],improved
same,Fat mass decrease vs. placebo,[7],the difference did not reach statistical significance
same,Quality of life as measured by the FACIT-F test,[7],No significant effects
same,Scale weight measures,[7],no corresponding increase
same,Levels of IGF-1,"[7]; weeks 4, 8, and 12",significantly increased
same,Levels of IGFBP-3,"[7]; weeks 4, 8, and 12",significantly increased
same,Lean body mass compared to placebo,[7]; weeks 4 and 8,significantly increased
same,Total body mass compared to placebo,[7]; weeks 4 and 8,significantly increased
same,Appetite as measured by BACRI-7,[8],no significant difference
same,Body weight compared with placebo,[8],significantly increased
same,Enjoyment from eating (BACRI-7),[8],significantly more patients reported greater enjoyment from eating
same,FACIT-F scores,[8],significantly increased
same,Food intake,[8],increased but not significantly
same,GH levels,[8],significantly increased
same,IGF-1 levels,[8],significantly increased
same,IGFBP-3 levels,[8],significantly increased
same,Patient-reported appetite as measured by ASAS,[8],significantly improved
COc1ccc2[nH]cc(CCNC(C)=O)c2c1 [melatonin],"Weight, body composition (including fat-free mass), symptom scores, quality-of-life outcomes (FACIT-F and FAACT) vs placebo",[9],No differences
